Assay results from ChEMBL document CHEMBL1157520, “Abietane diterpenoids from the bark of Cryptomeria fortunei” (2008).

Legend:
Assay type in all cases: functional
HL-60 [1] = test: Antitumor activity against human HL60 cells at 10^-4 mol/l by MTT assay
HL-60 [2] = test: Antitumor activity against human HL60 cells at 10^-6 mol/l by MTT assay
HL-60 [3] = test: Antitumor activity against human HL60 cells at 10^-5 mol/l by MTT assay
HL-60 [4] = test: Antitumor activity against human HL60 cells at 10^-8 mol/l by MTT assay
HL-60 [5] = test: Antitumor activity against human HL60 cells at 10^-7 mol/l by MTT assay
A549 [6] = test: Antitumor activity against human A549 cells at 10^-4 mol/l by SRB assay
A549 [7] = test: Antitumor activity against human A549 cells at 10^-5 mol/l by SRB assay
A549 [8] = test: Antitumor activity against human A549 cells at 10^-6 mol/l by SRB assay
A549 [9] = test: Antitumor activity against human A549 cells at 10^-7 mol/l by SRB assay
A549 [10] = test: Antitumor activity against human A549 cells at 10^-8 mol/l by SRB assay

SMILES	Activity (HL-60 [1]) [%]	Activity (HL-60 [2]) [%]	Activity (HL-60 [3]) [%]	Activity (HL-60 [4]) [%]	Activity (HL-60 [5]) [%]	Activity (A549 [6]) [%]	Activity (A549 [7]) [%]	Activity (A549 [8]) [%]	Activity (A549 [9]) [%]	Activity (A549 [10]) [%]
COc1c(C(C)C)cc2c(c1O)[C@@]1(C)CCCC(C)(C)[C@@H]1[C@@H](O)[C@@H]2OC [FORTUNIN C]	58.5	14.4	56.2	9.3	10.8	–	–	–	–	–
CC(C)c1cc2c(c(O)c1O)[C@@]1(C)CCCC(C)(C)C1=C(O)C2=O [14-DEOXYCOLEON U]	50.6	11.5	53.6	8.4	13.9	50.6	53.6	11.5	13.9	8.4
CC(C)c1cc2c(cc1O)[C@@]1(C)CCCC(C)(C)C1=C(O)C2=O	55.4	11.9	54.4	8.3	11.9	–	–	–	–	–
